Assays:
[1] = test system: canine tubule-derived MDCK II cells; assay: Inhibition of induction of apoptosis, Caspase-3/7 activity assay in spheroids; assay type: cell-based; conditions: U- and V-bottom 96-well plates coated with 0.5% solution diluted 4-fold and 8-fold; day 3 and day 6; concentration-dependent, more pronounced on day 6
Protocol: (§1) An aqueous solution of the polypeptide represented by formula (1) was added in two different concentrations (prepared by diluting a 0.5% solution 4-fold and 8-fold) at 100 μL/well and 200 μL/well respectively to two 96-well cell culture plates with different bottom shapes (plate #163320 with a U-shaped bottom; Corning, NY, USA, and plate #277143 with a V-shaped bottom; Thermo Fisher Scientific, MA, USA) and allowed to stand overnight at 4° C. Thereafter, the excess cell culture supplement was removed, and the remaining solution was dried in a clean bench for about 6 hours to complete the treatment with the cell culture supplement. […] After three days and six days, the apoptosis activity per well was measured by using a Caspase activity assay kit (Apo-ONE Homogeneous Caspase-3/7 Assay kit; Promega, WI, USA). […] Thereafter, 100 μL of the culture fluid was transferred to a black 96-well cell culture plate (#237105; Thermo Fisher Scientific, MA, USA), and the value of fluorescence at 590 nm (excitation light at 560 nm) was measured with a plate reader. The value determined by subtracting the value for reagent-only with no cells (blank value) from a measured value was considered to be the measured value for each day of culture, and the values compared to those of the plate not coated with the aqueous solution of the polypeptide represented by formula (1) (control) were plotted.

[2] = test system: healthy human adult mammary gland epithelial cells; assay: Spheroid culture of healthy human adult mammary gland epithelial cells, microscope observation; assay type: cell-based; conditions: culture vessel coated with 0.125% solution; day 2 to day 20; uncoated control grew 2D
Protocol: An aqueous solution of the polypeptide represented by formula (1) (0.125%) (cell culture supplement) was added to a commercial polystyrene-made 6-well flat-bottom culture vessel (CellBIND, Corning) and to a polystyrene-made 96-well round-bottom culture vessel (Nunclon Delta 96U Bottom, Thermo Fisher Scientific) and allowed to stand at 4° C. for 24 hours.
The cell culture supplement solution was then removed and the coated cell culture supplement was dried in a dryer at 37° C. for 96 hours to complete the cell culture supplement coating process. Healthy human adult mammary gland epithelial cells (ATCC PCS-600-010, primary mammary epithelial cells, referred to as “mammary gland epithelial cells” below) were maintained and cultured in a serum-free medium (Promo Cell; mammary epithelial cell growth medium, EGF 5 ng/ml, and insulin 2.5 μg/mL). In the culture vessels coated with the cell culture supplement, the mammary gland epithelial cells floating in 2 mL of the medium were seeded at 2×10^6 cells/well (6-well flat-bottom culture vessel) and the mammary gland epithelial cells floating in 100 μL of the medium were seeded at 2×10^4 cells/well (96-well round-bottom culture vessel). The cells of each culture vessel were cultured at 37° C. under 5% CO2 conditions. […]

[3] = test system: healthy human neonatal fibroblasts; assay: Anti-NANOG immunostaining of cells dissociated from neonatal fibroblast spheroids; assay type: cell-based; conditions: spheroids day 20 dissociated with Accutase, 24 h further culture; nuclei of some cells, majority NANOG-negative
Protocol: To detect stem cells induced in fibroblast spheroids, immunostaining with a fluorescent dye-labeled antibody was used, and stem cells in the spheroid-forming cells were detected. An aqueous solution of the polypeptide represented by formula (1) (0.125%) (cell culture supplement) was added to a commercial polystyrene-made 96-well round-bottom culture vessel (Nunclon Delta 96U Bottom, Thermo Fisher Scientific) at 100 μL/well to complete coating treatment with the cell culture supplement in the same manner as in Example 2. Fibroblasts were maintained and cultured in a serum-free medium (Fujifilm Wako Pure Chemical Corporation, DMEM/F12 medium, human serum albumin recombinant 0.5 mg/mL, human transferrin recombinant 10 μg/mL, basic-FGF 5 ng/ml, and insulin 2.5 μg/mL). Fibroblasts floating in the medium were seeded in the culture vessel coated with the cell culture supplement at 2×10^4 cells/well/100 μL and cultured at 37° C. under 5% CO2 conditions. On day 20 after the start of culture, spheroids were aseptically collected from the 96-well round-bottom culture vessel. […] For the fluorescence-labeled antibody, NL493 fluorescent dye-labeled anti-NANOG antibody (fluorescent green, R&D systems) was used, and observation was performed with a fluorescence microscope.

[4] = test system: healthy human neonatal fibroblasts; assay: Immunostaining of stem cell marker proteins in neonatal fibroblast spheroids; assay type: cell-based
Protocol: To confirm whether stem cells were induced in fibroblast spheroids, the expression of stem cell marker proteins was examined by immunostaining with fluorescent dye-labeled antibodies. An aqueous solution of the polypeptide represented by formula (1) (0.125%) (cell culture supplement) was added to a commercial polystyrene-made 96-well round-bottom culture vessel (Nunclon Delta 96U Bottom, Thermo Fisher Scientific) at 100 μL/well, and the coating treatment with the cell culture supplement was completed in the same manner as in Example 2. Fibroblasts were maintained and cultured in a serum-free medium (Fujifilm Wako Pure Chemical Corporation; DMEM/F12 medium, human serum albumin recombinant 0.5 mg/ml, human transferrin recombinant 10 μg/mL, basic-FGF 5 ng/ml, and insulin 2.5 μg/mL). Fibroblasts floating in the medium were seeded in the culture vessel coated with the cell culture supplement at 4×10^4 cells/well/100 μL and cultured at 37° C. under 5% CO2 conditions. Spheroids were collected from the 96-well round-bottom culture vessel on day 20 from the start of culture, and cell fixation was performed with a 4% paraformaldehyde solution, followed by immunostaining. For fluorescence-labeled antibodies, three antibodies for detection of human stem cell marker proteins (NL557 fluorescent dye-labeled anti-SOX2 antibody (fluorescent orange), NL493 fluorescent dye-labeled anti-NANOG antibody (fluorescent green), and NL637-labeled anti-OCT4 antibody (fluorescent red), R&D Systems)) were used and reacted simultaneously to perform observation with a fluorescence microscope.

HOS-143B cells = assay: Inhibition of induction of apoptosis, Caspase-3/7 activity assay in spheroids; assay type: cell-based, human; conditions: U- and V-bottom 96-well plates coated with 0.5% solution diluted 4-fold and 8-fold; day 3 and day 6; concentration-dependent, more pronounced on day 6
Protocol: as §1

Substance: (Pro-Hyp-Gly)n [cell culture supplement]
- apoptosis (Caspase-3/7 activity) compared with uncoated plate [1]: inhibited
- spheroid formation [2]: self-assembled to form spheroids
- nuclear NANOG protein in cells dispersed from spheroids [3]: strong NANOG antibody-positive green fluorescence
- NANOG stem cell marker protein, fluorescence (green) ([4]; spheroids day 20, NL493-labeled anti-NANOG antibody): detected
- SOX2 stem cell marker protein, fluorescence (orange) ([4]; spheroids day 20, NL557-labeled anti-SOX2 antibody): detected
- OCT4 stem cell marker protein, fluorescence (red) ([4]; spheroids day 20, NL637-labeled anti-OCT4 antibody): detected
- apoptosis (Caspase-3/7 activity) compared with uncoated plate (HOS-143B cells): inhibited

Reference: US20240294881A1, “CELL CULTURE SUPPLEMENT FOR PRODUCING STEM CELLS, AND METHOD FOR PRODUCING STEM CELLS” (OPTICELL, INC, priority 2021, published 2024)
